# Results published in patent US20030199002A1, “Clk-2 nucleic acids, polypeptides and uses thereof” (priority 2000, published 2003).
# Experiments:
# [1] = system: SK-HEP-1 cells overexpressing hclk-2; assay: Cell death assay (trypan blue exclusion) in SK-HEP-1 cells overexpressing hclk-2; assay type: cell-based, human; details: SK-HEP-1 cells overexpressing hclk-2 vs control cells
# Description: (§1) FIG. 11 illustrates the affect of hclk-2 overexpression on sensitivity to menadione, t-butyl hydroperoxide and hydroxyurea of SK-HEP-1 cells. SK-HEP-1 cells overexpressing hclk-2 and control cells were seeded at 1×10^5/well in a 6-well dish and were treated with γ-rays or apoptosis-inducing compounds for various lengths of time (see Table 7). Cells were then trypsinized, diluted and stained with 0.2% trypan blue. Cell viability was expressed as the percentage of cells excluding trypan blue. The data shown are the means of triplicate experiments. When cells were treated with menadione, t-butyl hydroperoxide or hydroxyurea, the viability of SK-HEP-1 cells overexpressing hclk-2 (44%, 30%, 40% respectively) was dramatically lower than that of the control cells (70%, 63%, 76%), respectively.
# (§2) To determine the occurrence of cell death, cells were seeded at 1×10^5 in 6-well dishes. The next day the cells were treated by γ-ray (20 Gy) and counted 72 hr later. A series of different apoptosis-inducing agents were also investigated and the cells were analyzed at various times following treatment (see Table 7). Cell viability was measured by the trypan blue exclusion method.
# [2] = Cell death assay (trypan blue exclusion) in SK-HEP-1 control cells; assay type: cell-based; details: human; SK-HEP-1 control cells (empty vector); concentration and time per Table 7: menadione 12 μM 24 hr, t-butyl hydroperoxide 40 μM 48 hr, hydroxyurea 0.6 mM 96 hr; means of triplicate; read-out: Cell viability (percentage of cells excluding trypan blue)
# Description: as §1, §2
# [3] = Cell death assay (trypan blue exclusion) in SK-HEP-1 cells overexpressing hclk-2; assay type: cell-based, human; details: human; SK-HEP-1 cells overexpressing hclk-2; concentration and time per Table 7: menadione 12 μM 24 hr, t-butyl hydroperoxide 40 μM 48 hr, hydroxyurea 0.6 mM 96 hr; means of triplicate; read-out: Cell viability (percentage of cells excluding trypan blue)
# Description: as §1, §2
SMILES,"Sensitivity of cells overexpressing hclk-2 to the apoptosis-inducing agent, compared to control cells [1]",viability [2],viability [3]
"COc1cc([C@@H]2c3cc4c(cc3[C@@H](O[C@@H]3O[C@@H]5CO[C@@H](C)O[C@H]5[C@H](O)[C@H]3O)[C@H]3COC(=O)[C@H]23)OCO4)cc(OC)c1O [etoposide, Etoposide]",no evidence to suggest that an increased sensitivity,–,–
"CC1=CC(=O)c2ccccc2C1=O [menadione, Menadione]",specifically hypersensitive,–,–
"CC(C)(C)OO [t-butyl hydroperoxide, t-Butyl hydroperoxide]",specifically hypersensitive,63%,30%
"NC(=O)NO [hydroxyurea, Hydroxyurea]",also hypersensitive,–,–
